This note sets out measurements from patent US20240208992A1, “MACROCYCLES AS CFTR MODULATORS” (Idorsia Pharmaceuticals Ltd, priority 2021, published 2024).

Molecules are shown by their SMILES.

This assay has as its target human F508del-CFTR (Homo sapiens, UniProt P13569, DEL508-508). Put plainly: F508del-CFTR cell surface expression (corrector activity), DiscoveRx ß-galactosidase complementation chemiluminescence assay in recombinant U2OS cell line.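 As to all read-outs here: U2OS cells co-expressing ProLink-tagged F508del-CFTR and a membrane-anchored enzyme acceptor, where more surface CFTR restores β-galactosidase activity measured by chemiluminescence.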 The conditions noted are these: for EC50: EC50, F508del-CFTR cell surface expression, U2OS cells, 16h compound incubation, geomean values; for Emax: U2OS, in relation to Emax of corrector lumacaftor (=100%), arithmetic mean values.

Chain of human F508del-CFTR (P13569 with tags, fused parts or gaps DEL508-508): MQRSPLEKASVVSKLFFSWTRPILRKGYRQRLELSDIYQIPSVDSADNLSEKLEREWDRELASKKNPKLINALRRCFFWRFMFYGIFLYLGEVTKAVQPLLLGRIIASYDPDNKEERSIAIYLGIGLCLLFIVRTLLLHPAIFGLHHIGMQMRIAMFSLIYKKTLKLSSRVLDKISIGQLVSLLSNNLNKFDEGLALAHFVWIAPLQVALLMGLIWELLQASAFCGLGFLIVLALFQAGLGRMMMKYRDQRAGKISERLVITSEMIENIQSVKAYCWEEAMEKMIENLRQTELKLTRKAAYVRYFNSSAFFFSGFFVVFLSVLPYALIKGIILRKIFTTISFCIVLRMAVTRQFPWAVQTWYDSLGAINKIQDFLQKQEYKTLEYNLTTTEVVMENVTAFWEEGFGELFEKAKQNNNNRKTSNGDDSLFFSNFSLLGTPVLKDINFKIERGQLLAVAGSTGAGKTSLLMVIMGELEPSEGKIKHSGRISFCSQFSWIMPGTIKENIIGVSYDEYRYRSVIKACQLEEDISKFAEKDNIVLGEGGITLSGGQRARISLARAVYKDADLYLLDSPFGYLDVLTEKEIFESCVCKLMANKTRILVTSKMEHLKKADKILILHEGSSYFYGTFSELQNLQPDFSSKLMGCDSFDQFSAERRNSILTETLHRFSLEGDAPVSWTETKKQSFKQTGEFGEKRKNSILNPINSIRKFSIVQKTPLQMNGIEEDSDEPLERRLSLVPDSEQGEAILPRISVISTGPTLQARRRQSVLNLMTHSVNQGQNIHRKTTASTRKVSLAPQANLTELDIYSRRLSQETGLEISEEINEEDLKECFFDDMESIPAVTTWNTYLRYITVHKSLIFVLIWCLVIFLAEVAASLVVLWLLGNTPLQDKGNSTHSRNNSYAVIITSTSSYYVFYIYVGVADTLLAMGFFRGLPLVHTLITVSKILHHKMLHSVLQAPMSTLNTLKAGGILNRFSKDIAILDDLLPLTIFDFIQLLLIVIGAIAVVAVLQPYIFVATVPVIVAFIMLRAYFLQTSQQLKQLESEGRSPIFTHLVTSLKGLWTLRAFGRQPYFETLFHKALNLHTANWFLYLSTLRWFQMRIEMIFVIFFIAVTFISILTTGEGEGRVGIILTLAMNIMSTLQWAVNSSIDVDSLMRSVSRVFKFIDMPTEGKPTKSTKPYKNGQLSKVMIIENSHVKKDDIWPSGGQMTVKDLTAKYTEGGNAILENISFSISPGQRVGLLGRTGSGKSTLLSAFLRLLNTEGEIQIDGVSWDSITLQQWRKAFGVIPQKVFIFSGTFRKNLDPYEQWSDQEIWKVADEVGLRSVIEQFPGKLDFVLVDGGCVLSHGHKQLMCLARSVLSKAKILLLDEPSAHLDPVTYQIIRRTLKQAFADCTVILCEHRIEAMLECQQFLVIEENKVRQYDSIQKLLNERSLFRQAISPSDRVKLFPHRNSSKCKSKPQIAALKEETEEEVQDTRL

What is called EC50 is the midpoint of the concentration-response curve. The term Emax denotes the greatest response seen or fitted, relative to the assay's reference. `COc1cccc(CCNC(=O)[C@@H]2CC(=O)N(C)[C@@H](CC(C)C)C(=O)N3CCN([S@](=O)(=NC(=O)OC(C)(C)C)c4ccccc4)C[C@@H]3C(=O)N[C@H](Cc3ccccc3)COc3ccc4ccccc4c3C(=O)N2)c1` [Example 757, tert-Butyl (((4aR,7R,18S,22S)-7-benzyl-22-isobutyl-18-((3-methoxyphenethyl)carbamoyl)-21-methyl-5,16,20,23-tetraoxo-1,2,4,4a,5,6,7,8,16,17,18,19,20,21,22,23-hexadecahydro-3H-naphtho[1,2-p]pyrazino[2,1-f][1]oxa[4,7,10,14]tetraazacycloheptadecin-3-yl)(oxo)(phenyl)-16-sulfaneylidene)carbamate]: the 50% effective concentration (EC50) stood at 145 nM and the maximal response (Emax) came out at 280%.

Take `COc1cccc(CCNC(=O)[C@@H]2CC(=O)N(C)[C@@H](CC(C)C)C(=O)N3CCN([S@@](=N)(=O)c4ccccc4)C[C@@H]3C(=O)N[C@H](Cc3ccccc3)COc3ccc4ccccc4c3C(=O)N2)c1` [Example 758, (4aR,7R,18S,22S)-7-Benzyl-22-isobutyl-N-(3-methoxyphenethyl)-21-methyl-5,16,20,23-tetraoxo-3-(phenylsulfonimidoyl)-2,3,4,4a,5,6,7,8,16,17,18,19,20,21,22,23-hexadecahydro-1H-naphtho[1,2-p]pyrazino[2,1-f][1]oxa[4,7,10,14]tetraazacycloheptadecine-18-carboxamide]: the concentration giving a half-maximal response (EC50) is 334 nM and the maximum response (Emax) amounted to 266%.

In the case of `CC(C)C[C@H]1C(=O)N2CCOC[C@@H]2C(=O)N[C@H](Cc2ccccc2)COc2ccc3ccccc3c2C(=O)N[C@H](C(=O)NCCc2cccc(C#N)c2)CC(=O)N1C` [Example 759, (4aR,7R,18S,22S)-7-Benzyl-N-(3-cyanophenethyl)-22-isobutyl-21-methyl-5,16,20,23-tetraoxo-1,2,4,4a,5,6,7,8,16,17,18,19,20,21,22,23-hexadecahydronaphtho[1,2-p][1,4]oxazino[3,4-f][1]oxa[4,7,10,14]tetraazacycloheptadecine-18-carboxamide], the EC50 was determined as 296 nM and the Emax was determined as 131%.

`COc1cccc(CCNC(=O)[C@@H]2CC(=O)N(C)[C@@H](CC(C)C)C(=O)N3CCCC[C@@H]3C(=O)N[C@H](Cc3ccccc3)COc3c[n+]([O-])c4ccccc4c3C(=O)N2)c1` [Example 760, (9S,13S,19aR,22R)-22-Benzyl-13-isobutyl-9-((3-methoxyphenethyl)carbamoyl)-12-methyl-7,11,14,20-tetraoxo-7,8,9,10,11,12,13,14,17,18,19,19a,20,21,22,23-hexadecahydro-16H-pyrido[2′,1′:6,7][1]oxa[4,7,10,14]tetraazacycloheptadecino[17,16-c]quinoline 2-oxide]: the concentration for a half-maximal effect (EC50) came out at 723 nM and the maximum response (Emax) stood at 333%.

On to `Cc1nc2ccc3c(c2o1)C(=O)N[C@H](C(=O)NCCc1cc(-c2ccccc2)no1)CC(=O)N(C)[C@@H](CC(C)C)C(=O)N(C)C1(CC1)C(=O)N[C@H](Cc1ccccc1)CO3` [Example 761, (8′R,14'S,18'S)-8′-Benzyl-14′-isobutyl-2′,12′,15′-trimethyl-10′,13′,16′,20′-tetraoxo-N-(2-(3-phenylisoxazol-5-yl)ethyl)-7′,8′,9′,10′,13′,14′,15′,16′,17′,18′,19′,20′-dodecahydro-12′H-spiro[cyclopropane-1,11′-oxazolo[4′,5′:5,6]benzo[1,2-p][1]oxa[4,7,10,14]tetraazacycloheptadecine]-18′-carboxamide], for which the EC50 was 676 nM and the Emax was 202%.

As for `Cc1nc2ccc3c(c2o1)C(=O)N[C@H](C(=O)NCCc1cc(C(C)C)no1)CC(=O)N(C)[C@@H](CC(C)C)C(=O)N(C)C1(CC1)C(=O)N[C@H](Cc1ccccc1)CO3` [Example 762, (8′R,14'S,18'S)-8′-Benzyl-14′-isobutyl-N-(2-(3-isopropylisoxazol-5-yl)ethyl)-2′,12′,15′-trimethyl-10′,13′,16′,20′-tetraoxo-7′,8′,9′,10′,13′,14′,15′,16′,17′,18′,19′,20′-dodecahydro-12′H-spiro[cyclopropane-1,11′-oxazolo[4′,5′:5,6]benzo[1,2-p][1]oxa[4,7,10,14]tetraazacycloheptadecine]-18′-carboxamide], the EC50 is 929 nM and the Emax was 333%.

As to `CC(C)C[C@H]1C(=O)N(C)C2(CC2)C(=O)N[C@H](Cc2ccccc2)COc2cnc3ccccc3c2C(=O)N[C@H](C(=O)NCCc2nc(Cc3ccccc3)no2)CC(=O)N1C` [Example 763, (3'S,7'S,13′R)-13′-Benzyl-N-(2-(3-benzyl-1,2,4-oxadiazol-5-yl)ethyl)-7′-isobutyl-6′,9′-dimethyl-1′,5′,8′,11′-tetraoxo-2′,3′,4′,5′,6′,7′,8′,9′,11′,12′,13′,14′-dodecahydro-1′H-spiro[cyclopropane-1,10′-[1]oxa[4,7,10,14]tetraazacycloheptadecino[17,16-c]quinoline]-3′-carboxamide], the 50% effective concentration (EC50) worked out at 264 nM and the Emax turned out to be 181%.

Regarding `CC(C)C[C@H]1C(=O)N(C)C2(CC2)C(=O)N[C@H](Cc2ccccc2)COc2cnc3ccccc3c2C(=O)N[C@H](C(=O)NCCc2nc(CC3CC3)no2)CC(=O)N1C` [Example 764, (3'S,7'S,13′R)-13′-Benzyl-N-(2-(3-(cyclopropylmethyl)-1,2,4-oxadiazol-5-yl)ethyl)-7′-isobutyl-6′,9′-dimethyl-1′,5′,8′,11′-tetraoxo-2′,3′,4′,5′,6′,7′,8′,9′,11′,12′,13′,14′-dodecahydro-1′H-spiro[cyclopropane-1,10′-[1]oxa[4,7,10,14]tetraazacycloheptadecino[17,16-c]quinoline]-3′-carboxamide], the EC50 came out at 374 nM and the Emax came to 315%.

For `COc1noc(CCNC(=O)[C@@H]2CC(=O)N(C)[C@@H](CC(C)C)C(=O)N(C)[C@H](C)C(=O)N[C@H](Cc3ccccc3)COc3ccnc(OC)c3C(=O)N2)c1F` [Example 765, (3R,6R,9S,13S)-3-benzyl-N-(2-(4-fluoro-3-methoxyisoxazol-5-yl)ethyl)-9-isobutyl-16-methoxy-6,7,10-trimethyl-5,8,11,15-tetraoxo-2,3,4,5,6,7,8,9,10,11,12,13,14,15-tetradecahydropyrido[3,4-p][1]oxa[4,7,10,14]tetraazacycloheptadecine-13-carboxamide], the concentration for a half-maximal effect (EC50) is 300 nM and the Emax was 323%.

For the compound `COc1noc(CCNC(=O)[C@@H]2CC(=O)N(C)[C@@H](CC(C)C)C(=O)N3CCCC[C@@H]3C(=O)N[C@H](Cc3ccccc3)COc3cc(C)nc(OC)c3C(=O)N2)c1F` [Example 766, (7S,11S,17aR,20R)-20-benzyl-N-(2-(4-fluoro-3-methoxyisoxazol-5-yl)ethyl)-11-isobutyl-4-methoxy-2,10-dimethyl-5,9,12,18-tetraoxo-5,6,7,8,9,10,11,12,15,16,17,17a,18,19,20,21-hexadecahydro-14H-dipyrido[2,1-f:3′,4′-p][1]oxa[4,7,10,14]tetraazacycloheptadecine-7-carboxamide], the EC50 is 154 nM and the maximal response (Emax) worked out at 393%.

As to `COc1noc(CCNC(=O)[C@@H]2CC(=O)N(C)[C@@H](CC(C)C)C(=O)N3CCCC[C@@H]3C(=O)N[C@H](Cc3ccccc3)COc3ccnc(OC)c3C(=O)N2)c1F` [Example 767, (7S,11S,17aR,20R)-20-benzyl-N-(2-(4-fluoro-3-methoxyisoxazol-5-yl)ethyl)-11-isobutyl-4-methoxy-10-methyl-5,9,12,18-tetraoxo-5,6,7,8,9,10,11,12,15,16,17,17a,18,19,20,21-hexadecahydro-14H-dipyrido[2,1-f:3′,4′-p][1]oxa[4,7,10,14]tetraazacycloheptadecine-7-carboxamide], the EC50 stood at 212 nM and the Emax is 390%.

As to `COc1cccc(CCNC(=O)[C@@H]2CC(=O)N(C)[C@@H](CC(C)C)C(=O)N(C)[C@H](C)C(=O)N[C@H](Cc3ccccc3)COc3ccnc(OC)c3C(=O)N2)c1` [Example 768, (3R,6R,9S,13S)-3-benzyl-9-isobutyl-16-methoxy-N-(3-methoxyphenethyl)-6,7,10-trimethyl-5,8,11,15-tetraoxo-2,3,4,5,6,7,8,9,10,11,12,13,14,15-tetradecahydropyrido[3,4-p][1]oxa[4,7,10,14]tetraazacycloheptadecine-13-carboxamide], the EC50 is 497 nM and the maximum response (Emax) worked out at 292%.

On to `COc1cc(CCNC(=O)[C@@H]2CC(=O)N(C)[C@@H](CC(C)C)C(=O)N3CCCC[C@@H]3C(=O)N[C@H](Cc3ccccc3)COc3ccc4ncc(F)cc4c3C(=O)N2)on1` [Example 769, (9S,13S,19aR,22R)-22-benzyl-5-fluoro-13-isobutyl-N-(2-(3-methoxyisoxazol-5-yl)ethyl)-12-methyl-7,11,14,20-tetraoxo-7,8,9,10,11,12,13,14,17,18,19,19a,20,21,22,23-hexadecahydro-16H-pyrido[2′,1′:6,7][1]oxa[4,7,10,14]tetraazacycloheptadecino[16,17-f]quinoline-9-carboxamide], for which the concentration giving a half-maximal response (EC50) was determined as 140 nM and the Emax came out at 346%.

Turning to `COc1cc(CCNC(=O)[C@@H]2CC(=O)N(C)[C@@H](CC(C)C)C(=O)N3CCCC[C@H]3C(=O)N[C@H](Cc3ccccc3)COc3ccc4ncc(F)cc4c3C(=O)N2)on1` [Example 770, (9S,13S,19aS,22R)-22-benzyl-5-fluoro-13-isobutyl-N-(2-(3-methoxyisoxazol-5-yl)ethyl)-12-methyl-7,11,14,20-tetraoxo-7,8,9,10,11,12,13,14,17,18,19,19a,20,21,22,23-hexadecahydro-16H-pyrido[2′,1′:6,7][1]oxa[4,7,10,14]tetraazacycloheptadecino[16,17-f]quinoline-9-carboxamide], the EC50 came out at 1000 nM and the Emax turned out to be 228%.
